Measurements: PubChem BioAssay (NCI)
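GI50 marks 50% less growth. TGI marks complete inhibition of growth.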

How the values were obtained:
Assay in all cases: NCI anticancer screen, dose series, 384-well format
BT-549 breast = system: BT-549 breast
COLO 205 colon = system: COLO 205 colon
SNB-75 CNS = system: SNB-75 CNS
ACHN renal = system: ACHN renal
SF-268 CNS = system: SF-268 CNS
EKVX NSCLC = system: EKVX NSCLC
SK-MEL-28 melanoma = system: SK-MEL-28 melanoma
SNB-19 CNS = system: SNB-19 CNS
SN12C renal = system: SN12C renal
SW-620 colon = system: SW-620 colon
OVCAR-4 ovarian = system: OVCAR-4 ovarian
OVCAR-8 ovarian = system: OVCAR-8 ovarian
SR leukemia = system: SR leukemia
A549 NSCLC = system: A549 NSCLC
NCI-H460 NSCLC = system: NCI-H460 NSCLC
K-562 leukemia = system: K-562 leukemia
T-47D breast = system: T-47D breast
NCI/ADR-RES ovarian = system: NCI/ADR-RES ovarian
MDA-MB-231 breast = system: MDA-MB-231 breast
786-0 renal = system: 786-0 renal
SK-OV-3 ovarian = system: SK-OV-3 ovarian
HT29 colon = system: HT29 colon
LOX IMVI melanoma = system: LOX IMVI melanoma
HOP-62 NSCLC = system: HOP-62 NSCLC
OVCAR-5 ovarian = system: OVCAR-5 ovarian
TK-10 renal = system: TK-10 renal
A498 renal = system: A498 renal
RXF 393 renal = system: RXF 393 renal
SF-539 CNS = system: SF-539 CNS

CC(CN(C)C)S(=O)(=O)c1ccc(-c2cnc(N)c(C(=O)Nc3ccccc3)n2)cc1 (stereo not drawn)
GI50 (BT-549 breast): 0.556 µM | TGI (BT-549 breast): 2.69 µM | GI50 (COLO 205 colon): 2.25 µM | TGI (COLO 205 colon): 5.9 µM | GI50 (SNB-75 CNS): 9.27 µM | TGI (SNB-75 CNS): > 100 µM | GI50 (ACHN renal): 0.979 µM | TGI (ACHN renal): 7.41 µM | GI50 (SF-268 CNS): 3.49 µM | TGI (SF-268 CNS): 12.4 µM | GI50 (EKVX NSCLC): 8.14 µM | TGI (EKVX NSCLC): 31.3 µM | GI50 (SK-MEL-28 melanoma): 2.39 µM | TGI (SK-MEL-28 melanoma): 6.47 µM | GI50 (SNB-19 CNS): 4.56 µM | TGI (SNB-19 CNS): 18.5 µM | GI50 (SN12C renal): 5.15 µM | TGI (SN12C renal): 20 µM | GI50 (SW-620 colon): 1.71 µM | TGI (SW-620 colon): 3.25 µM | GI50 (OVCAR-4 ovarian): 1.13 µM | TGI (OVCAR-4 ovarian): 4.19 µM | GI50 (OVCAR-8 ovarian): 3.82 µM | TGI (OVCAR-8 ovarian): 14.9 µM | GI50 (SR leukemia): 0.385 µM | TGI (SR leukemia): 1.4 µM | GI50 (A549 NSCLC): 2.17 µM | TGI (A549 NSCLC): 27.5 µM | GI50 (NCI-H460 NSCLC): 0.696 µM | TGI (NCI-H460 NSCLC): 6.72 µM | GI50 (K-562 leukemia): 1.89 µM | TGI (K-562 leukemia): 3.53 µM | GI50 (T-47D breast): 9.82 µM | TGI (T-47D breast): 22.2 µM | GI50 (NCI/ADR-RES ovarian): 3.11 µM | TGI (NCI/ADR-RES ovarian): 15.1 µM | GI50 (MDA-MB-231 breast): 12.9 µM | TGI (MDA-MB-231 breast): 36.3 µM | GI50 ([…]-0 renal): 0.753 µM | TGI (786-0 renal): 2.66 µM | GI50 (SK-OV-3 ovarian): 2.18 µM | TGI (SK-OV-3 ovarian): 13.1 µM | GI50 (HT29 colon): 1.61 µM | TGI (HT29 colon): 3.69 µM | GI50 (LOX IMVI melanoma): 2.48 µM | TGI (LOX IMVI melanoma): 11.5 µM | GI50 (HOP-62 NSCLC): 2.3 µM | TGI (HOP-62 NSCLC): 14.1 µM | GI50 (OVCAR-5 ovarian): 3.84 µM | TGI (OVCAR-5 ovarian): 14 µM | GI50 (TK-10 renal): 0.993 µM | TGI (TK-10 renal): 7.61 µM | GI50 (A498 renal): 0.343 µM | TGI (A498 renal): 1.35 µM | GI50 (RXF 393 renal): 2.03 µM | TGI (RXF 393 renal): 10.7 µM | GI50 (SF-539 CNS): 1.14 µM | TGI (SF-539 CNS): 2.62 µM
